# From patent US12049439B2 (OrsoBio, Inc., priority 2018, dated 2024)
# Test system: PC-3 cells
# Test: PC-3 Oxygen Rate Consumption (OCR) Assay
# Format: cell-based
# Settings: Homo sapiens, 0.05 h, medium with 2% FBS, OCR at 3-min post-injection normalized to % increase over DMSO-treated cells, concentration for half-maximal OCR increase, read-out: EC50-PC3-OCR-FBS-3min
# Procedure, shortened: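 PC-3 cells seeded a day before, equilibrated 1 h in XF medium with 10 mM glucose, 1 mM pyruvate, 2% FBS, non-CO2 at 37 °C. Compound injected after basal OCR reads; OCR at 3 min post-injection normalized as % increase over DMSO, EC50 = half-maximal increase; six replicates.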
row,SMILES,EC50
1,"N#CC12CCC(NC(=O)c3cc(C(F)(F)F)ccc3NS(=O)(=O)c3ccc(F)cc3)(CC1)CC2 [Example 119, N-(4-cyanobicyclo[2.2.2]octan-1-yl)-2-((4-fluorophenyl)sulfonamido)-5-(trifluoromethyl)benzamide]",1.26 µM
2,"CS(=O)(=O)Nc1ccc(S(F)(F)(F)(F)F)cc1C(=O)NC1CC2CCC(C1)O2 (stereo not shown) [Example 184, N-(8-oxabicyclo[3.2.1]octan-3-yl)-2-(methylsulfonamido)-5-(pentafluoro-λ^6-sulfanyl)benzamide]",48.1 µM
3,"O=C(NC12CC(C(F)(F)F)(C1)C2)c1cc(C(F)(F)F)ccc1NS(=O)(=O)N1CCS(=O)(=O)CC1 [Example 193, 2-((1,1-dioxidothiomorpholine)-4-sulfonamido)-5-(trifluoromethyl)-N-(3-(trifluoromethyl)bicyclo[1.1.1]pentan-1-yl)benzamide]",9.95 µM
4,"O=C(NC12CC(C(F)(F)F)(C1)C2)c1ccc(C(F)(F)F)cc1NS(=O)(=O)c1ccccc1 [Example 38, 2-(phenylsulfonamido)-4-(trifluoromethyl)-N-(3-(trifluoromethyl)bicyclo[1.1.1]pentan-1-yl)benzamide]",0.478 µM
5,"CC(C)(C)S(=O)(=O)Nc1ccc(C(F)(F)F)cc1C(=O)NC12CC3CC(CC(C#N)(C3)C1)C2 [Example 176, N-((1R,5R)-3-cyanoadamantan-1-yl)-2-((1,1-dimethylethyl)sulfonamido)-5-(trifluoromethyl)benzamide]",1.7 µM
6,"CS(=O)(=O)Nc1cc(F)ccc1C(=O)NC12CC(Cl)(C1)C2 [Example 79, N-(3-chlorobicyclo[1.1.1]pentan-1-yl)-4-fluoro-2-(methylsulfonamido)benzamide]",21.2 µM
7,"CS(=O)(=O)Nc1ccc(C(F)(F)F)cc1C(=O)NC12CCC(F)(CC1)CC2 [Example 82, N-(4-fluorobicyclo[2.2.2]octan-1-yl)-2-(methylsulfonamido)-5-(trifluoromethyl)benzamide]",6.32 µM
8,"CN(C)S(=O)(=O)Nc1ccc(C(F)(F)F)cc1C(=O)NC1CC2CCC(C1)N2S(C)(=O)=O (stereo not shown) [Example 174, 2-((N,N-dimethylsulfamoyl)amino)-N-(8-(methylsulfonyl)-8-azabicyclo[3.2.1]octan-3-yl)-5-(trifluoromethyl)benzamide]",108 µM
9,"CC(C)(C)S(=O)(=O)Nc1ccc(C(F)(F)F)cc1C(=O)NC12CCC(C#N)(CC1)CC2 [Example 191, N-(4-cyanobicyclo[2.2.2]octan-1-yl)-2-((1,1-dimethylethyl)sulfonamido)-5-(trifluoromethyl)benzamide]",1.76 µM
10,"CS(=O)(=O)Nc1cc(F)ccc1C(=O)NC12CCC(F)(CC1)CC2 [Example 199, 4-fluoro-N-(4-fluorobicyclo[2.2.2]octan-1-yl)-2-(methylsulfonamido)benzamide]",≥ 100 µM
11,"CCS(=O)(=O)c1ccc(S(=O)(=O)Nc2cc(C(F)(F)F)ccc2C(=O)NC23CC(F)(C2)C3)cc1 [Example 26, 2-((4-(ethylsulfonyl)phenyl)sulfonamido)-N-(3-fluorobicyclo[1.1.1]pentan-1-yl)-4-(trifluoromethyl)benzamide]",6.94 µM
12,"Cc1ccc(C(=O)NC23CC(C(F)(F)F)(C2)C3)c(NS(=O)(=O)C(C)C)c1 [Example 61, 4-methyl-2-((1-methylethyl)sulfonamido)-N-(3-(trifluoromethyl)bicyclo[1.1.1]pentan-1-yl)benzamide]",≥ 100 µM
13,"CC1(S(=O)(=O)Nc2cc(C(F)(F)F)ccc2C(=O)NC23CC(C(F)(F)F)(C2)C3)CC1 [Example 63, 2-((1-methylcyclopropane)-1-sulfonamido)-4-(trifluoromethyl)-N-(3-(trifluoromethyl)bicyclo[1.1.1]pentan-1-yl)benzamide]",0.937 µM
14,"N#CCCS(=O)(=O)Nc1ccc(Cl)cc1C(=O)NC12CC(C(F)(F)F)(C1)C2 [Example 228, 5-chloro-2-((2-cyanoethyl)sulfonamido)-N-(3-(trifluoromethyl)bicyclo[1.1.1]pentan-1-yl)benzamide]",3.37 µM
15,"O=C(NC12CC(C(F)(F)F)(C1)C2)c1cc(C(F)(F)F)ccc1NS(=O)(=O)C1COC1 [Example 73, 2-(oxetane-3-sulfonamido)-5-(trifluoromethyl)-N-(3-(trifluoromethyl)bicyclo[1.1.1]pentan-1-yl)benzamide]",2.62 µM
16,"O=C(NC12CC(C(F)(F)F)(C1)C2)c1ccc(C(F)(F)F)cc1NS(=O)(=O)c1ccc(-n2cnnn2)cc1 [Example 17, 2-((4-(1H-tetrazol-1-yl)phenyl)sulfonamido)-4-(trifluoromethyl)-N-(3-(trifluoromethyl)bicyclo[1.1.1]pentan-1-yl)benzamide]",5.83 µM
17,"CS(=O)(=O)Nc1ccc(C(F)(F)F)cc1C(=O)NC12C3C4C1C1C2C3C41C#N [Example 187, N-((2r,3R,4r,5S)-4-cyanocuban-1-yl)-2-(methylsulfonamido)-5-(trifluoromethyl)benzamide]",11.5 µM

row,SMILES,EC50
1,"CC(C)S(=O)(=O)Nc1cc(C(F)(F)F)ccc1C(=O)NC12CC(C1)C2 [Example 55, N-(bicyclo[1.1.1]pentan-1-yl)-2-((1-methylethyl)sulfonamido)-4-(trifluoromethyl)benzamide]",6.32 µM
2,"CS(=O)(=O)c1ccc(S(=O)(=O)Nc2ccc(C(F)(F)F)cc2C(=O)NC23CCC(C#N)(CC2)CC3)cc1 [Example 118, N-(4-cyanobicyclo[2.2.2]octan-1-yl)-2-((4-(methylsulfonyl)phenyl)sulfonamido)-5-(trifluoromethyl)benzamide]",49.2 µM
3,"COC12CC(NC(=O)c3cc(C(F)(F)F)ccc3NS(C)(=O)=O)(C1)C2 [Example 170, N-(3-methoxybicyclo[1.1.1]pentan-1-yl)-2-(methylsulfonamido)-5-(trifluoromethyl)benzamide]",44.8 µM
4,"CS(=O)(=O)c1ccc(S(=O)(=O)Nc2ccc(C(F)(F)F)cc2C(=O)NC23CC(c4ccccc4)(C2)C3)cc1 [Example 87, 2-((4-(methylsulfonyl)phenyl)sulfonamido)-N-(3-phenylbicyclo[1.1.1]pentan-1-yl)-5-(trifluoromethyl)benzamide]",3.28 µM
5,"O=C(NC12CCC(C(F)(F)F)(CC1)CC2)c1ccc(C(F)(F)F)cc1NS(=O)(=O)C1CCS(=O)(=O)CC1 [Example 230, 2-((1,1-dioxidotetrahydro-2H-thiopyran)-4-sulfonamido)-4-(trifluoromethyl)-N-(4-(trifluoromethyl)bicyclo[2.2.2]octan-1-yl)benzamide]",5.59 µM
6,"CCS(=O)(=O)Nc1cc(C(F)(F)F)ccc1C(=O)NC12CCC(C#N)(CC1)CC2 [Example 133, N-(4-cyanobicyclo[2.2.2]octan-1-yl)-2-(ethylsulfonamido)-4-(trifluoromethyl)benzamide]",14.7 µM
7,"CS(=O)(=O)Nc1ccc(C(F)(F)F)cc1C(=O)NC12CCC(C(F)F)(CC1)CC2 [Example 81, N-(4-(difluoromethyl)bicyclo[2.2.2]octan-1-yl)-2-(methylsulfonamido)-5-(trifluoromethyl)benzamide]",2.39 µM
8,"CC(C)(C)S(=O)(=O)Nc1ccc(-c2ncccn2)cc1C(=O)NC12CC(C(F)(F)F)(C1)C2 [Example 100, 2-((1,1-dimethylethyl)sulfonamido)-5-(pyrimidin-2-yl)-N-(3-(trifluoromethyl)bicyclo[1.1.1]pentan-1-yl)benzamide]",14.2 µM
9,"O=C(NC12CC(c3ccccc3)(C1)C2)c1ccc(C(F)(F)F)cc1NS(=O)(=O)c1ccc(-n2cnnn2)cc1 [Example 43, 2-((4-(1H-tetrazol-1-yl)phenyl)sulfonamido)-N-(3-phenylbicyclo[1.1.1]pentan-1-yl)-4-(trifluoromethyl)benzamide]",2.99 µM
10,"CS(=O)(=O)c1ccc(S(=O)(=O)Nc2cc(C(F)(F)F)ccc2C(=O)NC23CC(F)(C2)C3)cc1 [Example 20, N-(3-fluorobicyclo[1.1.1]pentan-1-yl)-2-((4-(methylsulfonyl)phenyl)sulfonamido)-4-(trifluoromethyl)benzamide]",14.3 µM
11,"N#CC12CCC(NC(=O)c3cc(C(F)(F)F)ccc3NS(=O)(=O)N3CCCC3)(CC1)CC2 [Example 130, N-(4-cyanobicyclo[2.2.2]octan-1-yl)-2-(pyrrolidine-1-sulfonamido)-5-(trifluoromethyl)benzamide]",4.68 µM
12,"CS(=O)(=O)Nc1cc(C#N)ccc1C(=O)NC12CC(C(F)(F)F)(C1)C2 [Example 148, 4-cyano-2-(methylsulfonamido)-N-(3-(trifluoromethyl)bicyclo[1.1.1]pentan-1-yl)benzamide]",17.7 µM
13,"N#CC12CCC(NC(=O)c3cc(C(F)(F)F)ccc3NS(=O)(=O)N3CCOCC3)(CC1)CC2 [Example 178, N-(4-cyanobicyclo[2.2.2]octan-1-yl)-2-(morpholine-4-sulfonamido)-5-(trifluoromethyl)benzamide]",5.93 µM
14,"CS(=O)(=O)Nc1ccc(S(=O)(=O)Nc2cc(C(F)(F)F)ccc2C(=O)NC23CC(C(F)(F)F)(C2)C3)cc1 [Example 107, 2-((4-(methylsulfonamido)phenyl)sulfonamido)-4-(trifluoromethyl)-N-(3-(trifluoromethyl)bicyclo[1.1.1]pentan-1-yl)benzamide]",30.6 µM
15,"O=C(NC12CC(c3ccccc3)(C1)C2)c1ccc(C(F)(F)F)cc1NS(=O)(=O)c1ccc(S(=O)(=O)C(F)F)cc1 [Example 44, 2-((4-((difluoromethyl)sulfonyl)phenyl)sulfonamido)-N-(3-phenylbicyclo[1.1.1]pentan-1-yl)-4-(trifluoromethyl)benzamide]",1.16 µM
16,"CS(=O)(=O)c1ccc(S(=O)(=O)Nc2cc(F)ccc2C(=O)NC23CC(C(F)(F)F)(C2)C3)cc1 [Example 5, 4-fluoro-2-((4-(methylsulfonyl)phenyl)sulfonamido)-N-(3-(trifluoromethyl)bicyclo[1.1.1]pentan-1-yl)benzamide]",5.8 µM
17,"CC(C)(C)S(=O)(=O)Nc1cc(C#N)ccc1C(=O)NC12CCC(C#N)(CC1)CC2 [Example 77, 4-cyano-N-(4-cyanobicyclo[2.2.2]octan-1-yl)-2-((1,1-dimethylethyl)sulfonamido)benzamide]",8.65 µM
